Where two headings read alike, the source gives them in different places.
Experiments:
[1] = molecular target: T1, RORγ ligand binding domain (LBD) (Homo sapiens, UniProt P51449); assay: TR-FRET Activity Assay (ligand sensing, RORγ-LBD / coactivator peptide interaction, LANCE); type: biochemical
T1 construct: made in house; host or cells: E. coli BL-21 (BL3), vector pDEST15
T1 sequence (P51449 269-508 limits assumed): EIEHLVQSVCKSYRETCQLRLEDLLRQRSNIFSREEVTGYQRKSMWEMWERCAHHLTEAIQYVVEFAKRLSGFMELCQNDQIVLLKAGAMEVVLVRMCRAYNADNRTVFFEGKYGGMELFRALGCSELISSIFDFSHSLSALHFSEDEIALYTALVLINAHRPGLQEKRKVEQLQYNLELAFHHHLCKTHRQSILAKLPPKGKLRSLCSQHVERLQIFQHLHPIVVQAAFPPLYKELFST

RORγ = molecular target: T2, RORγ (UniProt P51449); assay: RORγ Gal4 Reporter Gene Assay in 293T cells (firefly and renilla luciferase); type: cell-based, human
T2 sequence (P51449 1-518): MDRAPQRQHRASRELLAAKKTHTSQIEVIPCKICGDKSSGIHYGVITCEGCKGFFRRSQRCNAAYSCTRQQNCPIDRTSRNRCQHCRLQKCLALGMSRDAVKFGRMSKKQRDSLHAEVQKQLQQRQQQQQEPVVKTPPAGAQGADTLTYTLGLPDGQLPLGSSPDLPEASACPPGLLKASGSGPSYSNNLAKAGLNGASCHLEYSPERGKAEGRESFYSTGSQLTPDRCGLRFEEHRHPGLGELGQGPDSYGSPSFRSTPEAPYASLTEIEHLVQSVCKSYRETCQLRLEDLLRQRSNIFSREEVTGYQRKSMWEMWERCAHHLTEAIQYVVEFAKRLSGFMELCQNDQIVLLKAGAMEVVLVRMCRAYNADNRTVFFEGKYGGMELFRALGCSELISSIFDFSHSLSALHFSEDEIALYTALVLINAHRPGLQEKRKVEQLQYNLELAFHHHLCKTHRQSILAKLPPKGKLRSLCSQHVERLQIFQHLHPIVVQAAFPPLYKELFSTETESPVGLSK

[2] = first value of the cell FRET/FF/REN, TR-FRET activity assay, read-out: pIC50 (FRET) (converted)
[3] = second value of the cell, Gal4 reporter gene assay in 293T cells, firefly luciferase
[4] = third value of the cell, Gal4 reporter gene assay in 293T cells, renilla normalised luciferase

SMILES	IC50 [1, 2] [nM]	pIC50 (FF) (RORγ; [3])	pIC50 (REN) (RORγ; [4])	IC50 [1] [nM]	pIC50 (FF) (RORγ)	pIC50 (REN) (RORγ)
Cc1c(C(=O)NCCC(C)(C)C(N)=O)cc(-c2ccc(S(=O)(=O)NC(C)(C)C)c(C(F)(F)F)c2)n1CC1CCCCC1 [17/135]	631	6.7	6.7	–	–	–
Cc1c(C(=O)NC2CCOCC2)cc(-c2ccc(S(=O)(=O)NCC3(C)COC3)c(C(F)(F)F)c2)n1CC1CCCCC1 [17/147]	794	6.7	6.7	–	–	–
Cc1c(C(=O)N[C@H]2C[C@H](C(=O)O)C2)cc(-c2ccc(S(=O)(=O)NC(C)(C)C)c(OC(F)(F)F)c2)n1CC1CCCCC1 [17/174]	200	7.1	7.1	–	–	–
Cc1c(C(=O)N[C@H]2C[C@H](C(=O)O)C2)cc(-c2cc(NCC(C)(C)C)nc(C(C)(C)C)c2)n1CC1CCCCC1 [17/196]	3980	7.0	7.0	–	–	–
Cc1c(C(=O)NCCCCC[S+](C)[O-])cc(-c2cc(C(C)(C)C)c3c(c2)C2(CCO3)CC2)n1CC1CCCCC1 (stereo not drawn) [17/79]	–	–	–	1580	5.8/6.4/6.3	5.8/6.4/6.3
Cc1c(C(=O)NCC(O)C(F)(F)F)cc(-c2cc(C(C)(C)C)c3c(c2)C2(CCO3)CC2)n1CC1CCCCC1 (stereo not drawn) [17/23]	1260	6.6	6.6	–	–	–
Cc1c(C(=O)NC2COC2)cc(-c2cc(C(C)(C)C)nc(C(C)(C)C)c2)n1CC1CCCCC1 [1/122]	158	7.0	7.0	–	–	–
Cc1c(C(=O)NCC(C)(C)O)cc(-c2cc(C(=O)NC(C)C)cc(C(C)(C)C)c2)n1CC1CCCCC1 [15/9]	1000	6.9	7.0	–	–	–
Cc1c(C(=O)NCC(C)(C)C(=O)NCCO)cc(-c2cc(C(C)(C)C)c3c(c2)C2(CCO3)CC2)n1CC1CCCCC1 [11/5]	–	–	–	316	6.5/7.3/7.4	6.5/7.3/7.4
Cc1c(-c2cc(C(=O)NC3CCOCC3)c(C)n2CC2CCCCC2)ccc(S(=O)(=O)NC(C)(C)C)c1C [17/273]	1580	7.2	7.3	–	–	–
Cc1c(C(=O)N[C@H]2C[C@H](C(=O)O)C2)cc(-c2cc(C(=O)NCC(F)(F)F)cc(C3(C)CC3)c2)n1CC1CCCCC1 [17/357]	2000	6.7	6.8	–	–	–
Cc1c(C(=O)NC2CCOCC2)cc(-c2ccc(S(=O)(=O)NC(C)(C)C)c(C(F)(F)F)c2)n1S(=O)(=O)C1CCCCC1 [17/218]	316	7.1	7.3	–	–	–
Cc1c(C(=O)NC2CCOCC2)cc(C2=NN(S(=O)(=O)c3ccccc3)C3(CCCCC3)C2)n1CC1CCCCC1 [24/1]	12600	6.3	6.4	–	–	–
Cc1c(C(=O)NCC2(C(N)=O)CCOCC2)cc(-c2cc(C(C)(C)O)cc(C3(C)CC3)c2)n1CC1CCCCC1 [17/318]	2000	7.7	7.6	–	–	–
Cc1c(C(=O)NC2CCOCC2)cc(-c2ccc(S(=O)(=O)NC(C)(C)C)c(C(F)(F)F)c2)n1CC1CCCC1 [17/214]	251	7.5	7.5	–	–	–
Cc1c(C(=O)NCC(C)(C)O)cc(-c2cc(C(C)(C)C)cc(C3(C)CC3)c2)n1CC1CCCCC1 [1/87]	–	–	–	316	6.5/7.2/7.2	6.5/7.2/7.2
Cc1c(C(=O)NC2CCOCC2)cc(-c2cc3c(c(C(C)(C)C)c2)OCCC3=O)n1CC1CCCCC1 [17/104]	501	6.5	6.7	–	–	–

SMILES	IC50 [1, 2] [nM]	pIC50 (FF) (RORγ; [3])	pIC50 (REN) (RORγ; [4])	IC50 [1] [nM]	pIC50 (FF) (RORγ)	pIC50 (REN) (RORγ)
CCC(C)(C)NS(=O)(=O)c1ccc(-c2cc(C(=O)NC3COC3)c(C)n2CC2CCCCC2)cc1C(C)(C)C [9/7]	501	7.5	7.5	–	–	–
Cc1c(C(N)=O)cc(-c2ccc(C(O)(C(F)(F)F)C(F)(F)F)cc2)n1CC1CCCCC1 [1/45]	1000	5.6	5.8	–	–	–
Cc1c(C(=O)NCCC(=O)O)cc(-c2cc(C(C)(C)C)cc(C(C)(C)C)c2)n1CC1CCCCC1 [1/68]	1580	6.7	6.8	–	–	–
Cc1c(C(=O)NCC(C)(C)O)cc(-c2cc(C3(C)CC3)nc(C(C)(C)C)n2)n1CC1CCCCC1 [17/355]	–	–	–	316	6.5/6.6/6.6	6.5/6.6/6.6
Cc1c(C(=O)NCC2CC(C(=O)O)C2)cc(-c2cc(C(C)(C)O)cc(C3(C)CC3)c2)n1CC1CCCCC1 (stereo not drawn) [17/246]	3980	6.1	6.2	–	–	–
Cc1c(C(=O)NC2CCOCC2)cc(-c2ccc(S(=O)(=O)NC(C)(C)C)c3c(F)cccc23)n1CC1CCCCC1 [17/363]	1000	7.4	7.5	–	–	–
Cc1c(C(=O)NCC2CCS(=O)(=O)CC2)cc(-c2cc(C(C)(C)C)c3c(c2)C2(CCO3)CC2)n1CC1CCCCC1 [17/10]	–	–	–	398	6.4/7.6/7.6	6.4/7.6/7.6
Cc1c(C(=O)NC2CCOCC2)cc(-c2ccc(S(=O)(=O)NC(C)(C)C)c(C(C)(C)C)c2)n1CC1CCC1 [17/213]	–	–	–	631	6.2/7.1/7.2	6.2/7.1/7.2
Cc1c(S(=O)(=O)NC(C)(C)C)ccc(-c2cc(C(=O)NCC(C)(C)O)c(C)n2CC2CCCCC2)c1Cl [17/291]	398	7.6	7.7	–	–	–
Cc1c(C(=O)N[C@H]2C[C@H](C(=O)O)C2)c(Cl)c(-c2cc(C(C)(C)C)cc(C3(C)CC3)c2)n1CC1CCCCC1 [Example 29, (trans)-3-(5-(3-(tert-Butyl)-5-(1-methylcyclopropyl)phenyl)-4-chloro-1-(cyclohexylmethyl)-2-methyl-1H-pyrrole-3-carboxamido)cyclobutanecarboxylic acid]	3980	7.2	7.2	–	–	–
Cc1c(C(=O)NCC(C)(C)c2nn[nH]n2)cc(-c2cc(C(C)(C)C)cc(C3(C)CC3)c2)n1CC1CCCCC1 [17/77]	794	8.0	8.1	–	–	–
Cc1c(C(=O)NC2CCOCC2)cc(-c2cc3c(c(C(C)(C)C)c2)OCCC3O)n1CC1CCCCC1 (stereo not drawn) [17/105]	2000	6.1	6.3	–	–	–
Cc1c(C(=O)NC2CCOCC2)cc(-c2ccc(S(=O)(=O)NC(C)(C)C)c(C(F)(F)F)c2)n1CC1CCC(F)(F)CC1 [17/256]	631	6.8	7.0	–	–	–
Cc1c(C(=O)NC2CCOCC2)cc(-c2ccc(NS(=O)(=O)C(C)(C)C)c(C(F)(F)F)c2)n1CC1CCCCC1 [17/247]	1260	6.9	7.0	–	–	–
Cc1c(C(=O)NC2CCOCC2)cc(-c2ccc(C(N)=O)c(C(C)(C)C)c2)n1CC1CCCCC1 [6/3]	–	–	–	7940	5.1/5.9/5.7	5.1/5.9/5.7
Cc1c(C(=O)NC2CCOCC2)cc(-c2ccc(S(=O)(=O)N(CC(F)(F)F)C(C)(C)C)c(C(C)(C)C)c2)n1CC1CCCCC1 [17/1]	–	–	–	1260	5.9/8.0/7.9	5.9/8.0/7.9
Cc1c(C(=O)NC2COC2)cc(-c2cc(C(C)C)c3c(c2)C(C)(C)N(C(C)C)S3(=O)=O)n1CC1CCCCC1 [1/22]	1000	6.9	6.9	–	–	–
